The source of these data is PMC11855230, “Oligoethylene Phosphoramidate‐Based Kinase Inhibitor Prodrugs – Solubility, Enzyme Inhibition, and Hydrolysis” (Chemistry (Weinheim an Der Bergstrasse, Germany), 2025).

In brackets after ≈: the same amount, converted by molar mass. Several values for one entry are separate records, joined by “and”; a condition that tells them apart may be missing. Equal entries are not always repeated. Where two headings read alike, the source gives them in different places. Marks after values point to notes of the source that are not given here.

Details of data set [1]: method as in PMID 38923708. The note with it: kinetic solubility, cited from earlier work.
Data set [2] deals with T1, ROS proto‐oncogene 1 (ROS1) (Homo sapiens, UniProt P08922).
T1 construct: purchased biomol
The experiment in a line: ROS1 cell free enzyme (kinase) inhibition assay, luminescence. It is filed as biochemical. The note with it: 1 % DMSO, duplicates. The protocol: (§1) Apart from solubility and self‐assembly, we investigate the inhibitory potential against the respectively targeted receptors.
(§2) Enzyme Binding Studies (ROS1):[21] ROS1 assays are performed with the following substances: Cer‐OEG2 , Cer‐OEG3 , Cer‐OEG8 , Cri‐OEG2 , Cri‐OEG3 and Cri‐OEG8 . The instructions are followed with some specifications: DTT (10 μL of 1 M DTT to 1 mL buffer) is added to the buffer solution and the assay is performed with 1 % DMSO in the final reaction volume. Serial dilutions of inhibitor (5 μL) are mixed with 20 μL enzyme (5 ng/μL), 5 μL of IGF‐1Rtide (1 mg/mL) and 1 μL ATP solution (500 μM) in a 96‐well plate. The blank contains no enzyme and no inhibitor. The positive control contains enzyme but no inhibitor. The receptor inhibitory rate is calculated from the luminescence as IC50. […] Luminescence is recorded on Promega GloMax Navigator Microplate Luminometer. Samples are prepared in duplicates.

Data set [3] can be described thus: Dynamic light scattering (DLS) of drug‐conjugates in water. It is filed as physicochemical. The note with it: for PDI / hydrodynamic diameter: DLS in water, at the concentration given per compound (Figures S2–S5); for hydrodynamic diameter d: DLS in water at critical solution concentration c sol, 25 °C. As to the method: To study, whether self‐assembly into micelles might have an effect on the solubility limit of the prodrugs, we perform dynamic light scattering (DLS) of the drug‐conjugates in water. […] Micelles below 6 nm (Cer‐OEG8 , Cri‐OEG3 , Cri‐OEG8 , Pal‐OEG3 , Rib‐OEG2 , and Rib‐OEG3 ) are potentially affected by renal clearance.
Dynamic Light Scattering (DLS): Possible self‐assemblies are investigated with DLS Nano‐Zetasizer (Malvern Instruments) at 25 °C with a scattering angle of 173° at λ=633 nm.

The nature of data set [4]: Solubility limit in water (kinetic solubility) by UV/Vis optical density at 600 nm. It is filed as physicochemical. Conditions: kinetic from dmso stock, absorption at 600 nm, read-out: c sol (water), solubility limit in water. The text has this:
With all purified compounds in hand, we start to analyze the different properties of the conjugates and discuss the influence of the OEG‐chain lengths. We determine the solubility in water with UV/Vis spectroscopy by measuring the optical density at 600 nm. The absorption (A) is plotted against varying concentration (c) of the drug conjugates (see Figure S1). In the range, in which the drug and their conjugates are still soluble, A can be fitted linearly. When the solubility limit is reached, the drug crashes out of solution leading to scattering and reduced transmission manifesting a threshold, upon which the increase in absorption is fitted with a second line of higher slope. The intersection between the two linear fits gives the critical concentration for the kinetic solubility c sol. Detailed solubility plots can be found in the supporting information (see Figure S1). In our previous study with n=4, the solubility of all three kinase inhibitor prodrugs in water is improved over the native drug. However, the extent of improvement varies between the different kinase inhibitor prodrugs. For a better overview, we have included the performance of our previous study (see Figure 2).[21] […] We observe an improvement of solubility upon conjugation with all of our different OEG‐phosphates.
UV‐Vis Spectroscopy: Changes in solubility are measured with a Lambda 365 spectrometer by PerkinElmer supplied with UV WinLab software. Samples are prepared in water and placed in a 1 cm quartz cuvette.

Data set [5] can be described thus: pH dependent hydrolysis / drug release by HPLC. Format: physicochemical. The note with it: acetate buffer, pH 3, 37 °C. From the text:
The working principle of a prodrug is to improve solubility and circulation time and not necessarily to improve binding to the target. However, binding should of course become important when the prodrug has arrived at the designated site and the promoiety is cleaved to release the native drug. In case of the phosphoramidate linked OEG chains, release of the native drug is induced by hydrolysis at low pH.[21, 28, 29, 30, 31, 32] The stability of the phosphoramidate linker and therefore its half‐life depends on the chemical surrounding in the molecule.[28, 29] Since we only change distant substituents by varying the binding motif of the respective kinase inhibitor, we expect only minor influence on the rate of hydrolysis. We investigate the samples at pH 3, 4, 5, 6, and 7.4 over a course of 72 h at 37 °C using high pressure liquid chromatography (HPLC) (see Figure S10–13 and Table S1–11). […]
High Performance Liquid Chromatography (HPLC): Drug release is monitored on Agilent 1260 Infinity containing the following modules: G1311B Quat Pump, G1329B ALS, G1365D MWD VL in combination with a Jetstream 2 plus column thermostat. […] Flow rate is set to 0.3 mL/min and absorption is detected at 254 nm. […]
pH Dependent Hydrolysis:[21] […] Drug release percentages are calculated form the ratio of the peak area of drug and drug‐OEG conjugate for 0, 3, 6, 24, 48 and 72 h.

Data set [6] deals with T2, cyclin‐dependent kinase 4 (CDK4) (Homo sapiens, UniProt P11802).
T2 construct: purchased biomol
The experiment in a line: CDK4 cell free enzyme (kinase) inhibition assay, luminescence. The note with it: 1 % DMSO, duplicates. It is filed as biochemical. As to the method: as §1
as §2, with “Binding Assays (CDK4):[21] […]” for “Binding Studies (ROS1):[21] ROS1 assays are performed with the following substances: Cer‐OEG2 , Cer‐OEG3 , Cer‐OEG8 , Cri‐OEG2 , Cri‐OEG3 and Cri‐OEG8 .”, “enzyme (10” for “enzyme (5”, “of 10x CDK4 substrate peptide” for “of IGF‐1Rtide (1 mg/mL)”

The test system of data set [7] is HeLa cells. The experiment in a line: Cell uptake in HeLa cells by confocal laser scanning microscopy (CLSM). It is filed as cell-based. Conditions: 25 μM, 23 h, excitation 405 nm. The protocol: Altogether an OEG chain length of n=4 seems to be favorable for producing prodrugs with improved solubility from kinase inhibitors. […] Here we therefore concentrate on Rib‐OEG4 . […] The drug and its conjugate are exited at 405 nm, leading to weak fluorescence of the drugs.
Uptake is followed by Confocal for 23 h using Leica TCS SP8 Lightning confocal microscope with an OnkoLab incubator chamber with a constant temperature of 37 °C and a 5 % CO2 atmosphere at 95 % humidity (gas flow: 0.1 L/min). Drug and drug‐OEG conjugate is excited at 405 nm.

The mark [8] stands for this setting: values marked a from previous publication ref 21.

T1 sequence (P08922 28-2347): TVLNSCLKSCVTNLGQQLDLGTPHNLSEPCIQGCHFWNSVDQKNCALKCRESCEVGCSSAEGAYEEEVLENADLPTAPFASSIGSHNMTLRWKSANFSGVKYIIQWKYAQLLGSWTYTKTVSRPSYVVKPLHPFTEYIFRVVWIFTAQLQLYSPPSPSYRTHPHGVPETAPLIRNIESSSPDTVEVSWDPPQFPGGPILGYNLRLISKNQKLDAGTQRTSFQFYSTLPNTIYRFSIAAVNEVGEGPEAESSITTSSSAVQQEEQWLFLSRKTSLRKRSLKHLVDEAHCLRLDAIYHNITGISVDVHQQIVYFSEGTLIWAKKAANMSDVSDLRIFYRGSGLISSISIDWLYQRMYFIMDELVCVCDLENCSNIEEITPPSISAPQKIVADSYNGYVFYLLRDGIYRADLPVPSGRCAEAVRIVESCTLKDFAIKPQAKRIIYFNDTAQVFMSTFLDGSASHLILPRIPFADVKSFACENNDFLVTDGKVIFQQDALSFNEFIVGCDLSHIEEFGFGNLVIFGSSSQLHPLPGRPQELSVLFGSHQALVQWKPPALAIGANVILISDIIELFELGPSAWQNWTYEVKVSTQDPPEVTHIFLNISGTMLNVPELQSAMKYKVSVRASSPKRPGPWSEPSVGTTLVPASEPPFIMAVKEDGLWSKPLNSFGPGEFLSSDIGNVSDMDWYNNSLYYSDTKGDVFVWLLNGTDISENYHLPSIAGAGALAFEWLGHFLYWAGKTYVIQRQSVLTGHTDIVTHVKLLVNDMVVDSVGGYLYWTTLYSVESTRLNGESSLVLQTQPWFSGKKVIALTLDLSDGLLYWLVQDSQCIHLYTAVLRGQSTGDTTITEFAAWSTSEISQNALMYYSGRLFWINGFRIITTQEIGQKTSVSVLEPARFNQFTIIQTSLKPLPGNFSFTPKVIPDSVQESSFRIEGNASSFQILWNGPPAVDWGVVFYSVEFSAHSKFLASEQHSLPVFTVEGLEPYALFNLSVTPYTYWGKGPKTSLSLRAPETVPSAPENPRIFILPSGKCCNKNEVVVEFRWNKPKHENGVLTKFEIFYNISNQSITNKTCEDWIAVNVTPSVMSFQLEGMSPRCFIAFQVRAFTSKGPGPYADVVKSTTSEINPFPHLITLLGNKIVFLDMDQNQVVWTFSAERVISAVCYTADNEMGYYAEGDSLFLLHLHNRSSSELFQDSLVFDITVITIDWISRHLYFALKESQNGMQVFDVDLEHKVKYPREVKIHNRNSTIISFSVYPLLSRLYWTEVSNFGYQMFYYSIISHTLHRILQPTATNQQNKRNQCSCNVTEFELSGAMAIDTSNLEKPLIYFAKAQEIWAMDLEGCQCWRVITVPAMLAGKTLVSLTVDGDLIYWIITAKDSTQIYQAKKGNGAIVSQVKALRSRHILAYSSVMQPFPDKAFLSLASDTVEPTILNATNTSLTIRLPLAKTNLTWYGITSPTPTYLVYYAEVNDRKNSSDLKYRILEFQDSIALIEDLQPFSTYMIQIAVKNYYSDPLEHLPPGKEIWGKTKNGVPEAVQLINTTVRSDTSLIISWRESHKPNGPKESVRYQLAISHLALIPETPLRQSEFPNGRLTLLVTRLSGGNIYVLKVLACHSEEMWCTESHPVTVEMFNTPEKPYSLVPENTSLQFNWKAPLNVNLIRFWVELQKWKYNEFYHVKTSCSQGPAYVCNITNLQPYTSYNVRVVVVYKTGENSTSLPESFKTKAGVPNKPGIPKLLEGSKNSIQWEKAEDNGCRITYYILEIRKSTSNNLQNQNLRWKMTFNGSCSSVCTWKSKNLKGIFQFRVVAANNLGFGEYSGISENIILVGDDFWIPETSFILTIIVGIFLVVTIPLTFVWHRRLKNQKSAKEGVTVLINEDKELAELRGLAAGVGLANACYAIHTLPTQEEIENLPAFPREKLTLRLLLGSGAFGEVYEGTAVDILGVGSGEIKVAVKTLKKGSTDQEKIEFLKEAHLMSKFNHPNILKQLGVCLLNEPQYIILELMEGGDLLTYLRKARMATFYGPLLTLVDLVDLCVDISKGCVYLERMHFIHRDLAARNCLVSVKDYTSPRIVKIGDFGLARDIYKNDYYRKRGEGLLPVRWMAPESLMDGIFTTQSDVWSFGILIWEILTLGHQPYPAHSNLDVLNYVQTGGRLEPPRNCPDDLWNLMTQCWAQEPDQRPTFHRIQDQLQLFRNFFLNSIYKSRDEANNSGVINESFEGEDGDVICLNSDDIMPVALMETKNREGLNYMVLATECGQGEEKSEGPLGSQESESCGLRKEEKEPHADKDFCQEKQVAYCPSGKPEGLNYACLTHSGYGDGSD
T2 sequence (P11802 whole entry): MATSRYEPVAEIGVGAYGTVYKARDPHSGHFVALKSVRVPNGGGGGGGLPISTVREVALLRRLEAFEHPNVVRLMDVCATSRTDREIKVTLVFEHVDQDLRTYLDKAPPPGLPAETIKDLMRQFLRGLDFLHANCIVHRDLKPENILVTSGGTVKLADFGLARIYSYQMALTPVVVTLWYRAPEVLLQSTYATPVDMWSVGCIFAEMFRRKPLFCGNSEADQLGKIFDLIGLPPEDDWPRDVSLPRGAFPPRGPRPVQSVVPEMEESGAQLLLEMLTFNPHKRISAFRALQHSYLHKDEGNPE
T2 sequence (P30281 whole entry partner): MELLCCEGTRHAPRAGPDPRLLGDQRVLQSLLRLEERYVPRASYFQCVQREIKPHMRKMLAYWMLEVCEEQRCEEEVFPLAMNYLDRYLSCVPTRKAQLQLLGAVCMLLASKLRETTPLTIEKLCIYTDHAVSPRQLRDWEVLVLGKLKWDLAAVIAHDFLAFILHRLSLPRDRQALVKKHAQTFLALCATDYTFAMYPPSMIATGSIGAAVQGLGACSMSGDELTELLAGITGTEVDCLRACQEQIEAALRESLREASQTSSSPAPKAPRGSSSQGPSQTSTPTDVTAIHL

Regarding `Cc1cc(Nc2ncc(Cl)c(Nc3ccccc3S(=O)(=O)C(C)C)n2)c(OC(C)C)cc1C1CCNCC1` [Ceritinib], the “c sol (water), solubility limit in water” value in data set [1] (values marked a from previous publication ref 21, listed as Ceritninib) was 0.93 mM; in data set [1] (setting [8]) it was ≤0.93^a mM.
`COCCOCCOP(=O)(OCCOCCOC)N1CCC(c2cc(OC(C)C)c(Nc3ncc(Cl)c(Nc4ccccc4S(=O)(=O)C(C)C)n3)cc2C)CC1` [Cer‐OEG2] returned an IC50 in data set [2] of 0.1 µM. In data set [3], this molecule came in with a PDI of 0.46 and a hydrodynamic diameter of 565 nm.
In the same order, the values of `COCCOCCOCCOP(=O)(OCCOCCOCCOC)N1CCC(c2cc(OC(C)C)c(Nc3ncc(Cl)c(Nc4ccccc4S(=O)(=O)C(C)C)n3)cc2C)CC1` [Cer‐OEG3] are 0.045 µM, 0.05 and 279 nm.
The molecule `COCCOCCOCCOCCOCCOCCOCCOCCOP(=O)(OCCOCCOCCOCCOCCOCCOCCOCCOC)N1CCC(c2cc(OC(C)C)c(Nc3ncc(Cl)c(Nc4ccccc4S(=O)(=O)C(C)C)n3)cc2C)CC1` [Cer‐OEG8] registered an IC50 in data set [2] of 0.1 µM. In data set [3], this molecule came in with a PDI of 0.25 and a hydrodynamic diameter of 4.9 nm. The solubility in data set [4] is 1.75 mM (≈ 2400 µg/mL). For the same molecule, the half-life in data set [5] is 50 h.
For `C[C@@H](Oc1cc(-c2cnn(C3CCNCC3)c2)cnc1N)c1c(Cl)ccc(F)c1Cl` [Crizotinib], the “c sol (water), solubility limit in water” value in data set [1] (setting [8]) is listed as ≤0.77 ^a mM.
In turn, `COCCOCCOP(=O)(OCCOCCOC)N1CCC(n2cc(-c3cnc(N)c(O[C@H](C)c4c(Cl)ccc(F)c4Cl)c3)cn2)CC1` [Cri‐OEG2] registered an IC50 in data set [2] of 0.05 µM. Besides, in data set [3], the PDI is on record as 0.03 and the hydrodynamic diameter is 151 nm.
Regarding `COCCOCCOCCOP(=O)(OCCOCCOCCOC)N1CCC(n2cc(-c3cnc(N)c(O[C@H](C)c4c(Cl)ccc(F)c4Cl)c3)cn2)CC1` [Cri‐OEG3], the IC50 in data set [2] amounted to 0.045 µM. In addition, in data set [3], the PDI turned out to be 0.02 and the hydrodynamic diameter was 3.7 nm. For the same molecule, the solubility in data set [4] stood at 19.1 mM (≈ 15700 µg/mL).
For `COCCOCCOCCOCCOCCOCCOCCOCCOP(=O)(OCCOCCOCCOCCOCCOCCOCCOCCOC)N1CCC(n2cc(-c3cnc(N)c(O[C@H](C)c4c(Cl)ccc(F)c4Cl)c3)cn2)CC1` [Cri‐OEG8], in data set [2], the IC50 came out at 0.14 µM. In data set [3], this molecule displayed a PDI of 0.36 and a hydrodynamic diameter of 3.3 nm. In addition, in data set [4], the solubility is no more than 4.62 mM.
Take `CC(=O)c1c(C)c2cnc(Nc3ccc(N4CCNCC4)cn3)nc2n(C2CCCC2)c1=O` [Palbociclib]: the “c sol (water), solubility limit in water” value in data set [1] (setting [8]) is ≤0.02 ^a mM.
As to `COCCOCCOP(=O)(OCCOCCOC)N1CCN(c2ccc(Nc3ncc4c(C)c(C(C)=O)c(=O)n(C5CCCC5)c4n3)nc2)CC1` [Pal‐OEG2], in data set [6], the midpoint of inhibition, the IC50, lay at 1 µM. Moreover, in data set [3], the PDI was 0.17 and the hydrodynamic diameter amounted to 264 nm.
For the molecule `COCCOCCOCCOP(=O)(OCCOCCOCCOC)N1CCN(c2ccc(Nc3ncc4c(C)c(C(C)=O)c(=O)n(C5CCCC5)c4n3)nc2)CC1` [Pal‐OEG3], the IC50 in data set [6] is 0.215 to 0.27 µM and 0.215 µM. In data set [3], this molecule gave a PDI of 0.74 and a hydrodynamic diameter of 5 nm. Also, the solubility in data set [4] turned out to be 8.71 mM (≈ 7140 µg/mL).
`COCCOCCOCCOCCOCCOCCOCCOCCOP(=O)(OCCOCCOCCOCCOCCOCCOCCOCCOC)N1CCN(c2ccc(Nc3ncc4c(C)c(C(C)=O)c(=O)n(C5CCCC5)c4n3)nc2)CC1` [Pal‐OEG8]: the half-inhibitory concentration (IC50) in data set [6] is 0.215 to 0.27 µM and 0.27 µM. Moreover, in data set [3], the hydrodynamic diameter d is listed as 596 nm, the PDI is 0.33 and the hydrodynamic diameter is on record as 596 nm. Also, the solubility in data set [4] was no more than 3.16 mM.
For the molecule `CN(C)C(=O)c1cc2cnc(Nc3ccc(N4CCNCC4)cn3)nc2n1C1CCCC1` [Ribociclib, reference compound], in data set [4], the solubility was 0.49 mM (≈ 213 µg/mL). The “uptake in HeLa cells” value in data set [7] was “taken up by the cells”.
Take `COCCOCCOP(=O)(OCCOCCOC)N1CCN(c2ccc(Nc3ncc4cc(C(=O)N(C)C)n(C5CCCC5)c4n3)nc2)CC1` [Rib‐OEG2]: in data set [6], half-maximal inhibition (IC50) was put at 0.11 µM. In data set [3], this molecule returned a PDI of 0.22 and a hydrodynamic diameter of 2.5 nm. Besides, the solubility in data set [4] was 12.3 mM (≈ 8840 µg/mL).
Taken in the same sequence, the figures for `COCCOCCOCCOP(=O)(OCCOCCOCCOC)N1CCN(c2ccc(Nc3ncc4cc(C(=O)N(C)C)n(C5CCCC5)c4n3)nc2)CC1` [Rib‐OEG3] were 0.37 µM, 0.15, 1.8 nm and 13.5 mM (≈ 10900 µg/mL).
With `COCCOCCOCCOCCOCCOCCOCCOCCOP(=O)(OCCOCCOCCOCCOCCOCCOCCOCCOC)N1CCN(c2ccc(Nc3ncc4cc(C(=O)N(C)C)n(C5CCCC5)c4n3)nc2)CC1` [Rib‐OEG8], half-maximal inhibition in data set [6] (IC50) was put at 0.4 µM. Further, in data set [3], the hydrodynamic diameter d was 64 nm, the PDI was 0.22 and the hydrodynamic diameter came out at 64 nm. The solubility in data set [4] came out at 1.52 mM (≈ 1900 µg/mL).
